Measurements published in patent US20240407364A1, “METHODS OF WEED CONTROL” (Weedout Ltd., priority 2021, published 2024).
“Also recorded” adds a separate entry of the source.

How the values were obtained:
[1] = system: A. palmeri female plants; experiment: Exp 289: seed set of female plants pollinated 1.5 hours to 10 days after Clethodim; type: in vivo, Amaranthus palmeri; details: Select Super 3.5 ml/l
Description: The goal of this experiment was to examine the effects of Clethodim (Select Super™) on seed set in A. palmeri female plants. The results of Example 1 provided an initial indication on a reduction in seed set one week after an application of Clethodim. The following experiment tested the effect of Clethodim on seed set when pollination occurs from 1.5 hours to 10 days after treatment with Clethodim.
The experiment was conducted during June-July 2021 at the tests farm of the Tests farm of the Faculty of Agriculture, Rehovot, Israel, Israel. A. palmeri plants were sown in germinating trays. Three weeks after the seedlings had emerged, they were transplanted to 4 L pots with a potting soil mixture. The female plants were separated from the male plants and were grown outside in a location isolated from air-borne pollen. Upon maturation, 6 female plants were selected and divided into 2 groups of 3 plants.
Spraying of the entire plants with either tap water or Select Super™ (3.5 ml/1) using a hand-held 1.5 L sprayer, with enough distance between the groups to prevent contamination.
To test the effect of Clethodim on seed set, the inflorescence of the plants were artificially pollinated. On each time interval, a paper tube with 10 mg of fresh non-irradiated pollen was carefully placed on an inflorescence, leaving it for 20 minutes before removing. […]

[2] = system: Solanum nigrum; experiment: Exp 401: clethodim on Solanum nigrum; type: in vivo; details: Select Super 7 ml/L; 15 DAA; p-value 0.0048
Description: (§1) The goal of this experiment was to examine if ACCase inhibitors can function as a sterilant on other broadleaf families.
(§2) The experiment was conducted during April-June 2022 at the test farm of the Faculty of Agriculture in Rehovot, Israel. The different broad leaf species (Table 5) were sown in germination trays. 3-4 weeks after the seedling had emerged, they were transplanted in 4 L pots with potting soil mixture. Amaranthus tuberculatus female plants were separated from male plants and grown outside in a location isolated from air borne pollen. Upon maturation, 10 plants from each species, except for A. tuberculatus females, were selected and divided into 2 groups (control and treatment). In A. tuberculatus, 8 female plants were used for the testing.
(§3) All the treated plants were sprayed with clethodim (Select Super™, Arysta Lifescience) in 7 ml/L rate while the control group was treated with tap water. […]
(§4) Four, 7 14 and 21 days after treatment, the plants were visually examined carefully to identify possible sterilant effects such as reduction in pollen production, growth delay, damaged flowers, loss of flowers, loss of pods and phytotoxicity. These effects were measured or evaluated and recorded. The average values of each parameter were calculated both for the treated and for the control groups and a statistical analysis was conducted.

[3] = system: Amaranthus tuberculatus female plants; experiment: Exp 401: clethodim on broadleaf panel, Amaranthus tuberculatus seed set; type: in vivo; details: Select Super 7 ml/L
Description: as §1, §2
(§5) All the treated plants were sprayed with clethodim (Select Super™, Arysta Lifescience) in 7 ml/L rate while the control group was treated with tap water.
(§6) Treatment procedure was conducted as follows: spraying of the entire plants with the different treatments using electric back sprayer for a full cover, with enough distance between the groups to prevent contamination.
To test the effect of treatment on the seed set, artificial pollinations were conducted 7 days following the clethodim treatment. One spike from each plant was artificially pollinated by placing a paper tube with 10 mg of fresh non-irradiated pollen on the spike and leaving it for 20 minutes before removing. A total of 4 spikes from 4 female plants were pollinated.
as §4

[4] = system: A. palmeri female plants; experiment: Exp 313: dose response of Clethodim (Select Super) on seed set; type: in vivo, Amaranthus palmeri; details: for reduction in number of seeds produced in comparison to the control, on average: all time points averaged
Description: The goal of this experiment was to examine dose response of Clethodim (Select Super™) treatment and validate the results of Example 3.
The experiment was conducted during September 2021 at the tests farm of the Faculty of Agriculture in Rehovot, Israel. A. palmeri plants were sown in germinating trays. 3 weeks after the seedlings had emerged, they were transplanted to 4 L pots with a potting soil mixture. The female plants were separated from the male plants and were grown outside in a location isolated from air-borne pollen. Upon maturation, 9 female plants were selected and divided into 3 groups of 3 plants.
The experiment tested 2 rates of Select Super™ (Clethodim 120 gr/L-Arysta): (I) Low rate (3.5 ml/1), (II) High rate (7 ml/1). Another group of plants was treated with tap water (Control), [3.5 ml/L treatment=0.42 gr/L in active ingredient, 7 ml/L treatment=0.84 gr/L].
Treatment procedure was conducted as follows: spraying of the entire plants with the different treatments using a hand-held 1.5 L sprayer, with enough distance between the groups to prevent contamination.
To test the effect of Clethodim on seed set, artificial pollinations were conducted in several time intervals following clethodim treatment. On each time interval, 2 inflorescences on each plant were artificially pollinated by placing a paper tube with 10 mg of fresh non-irradiated pollen on the inflorescence and leaving it for 20 minutes before removing. On each time interval a total of 6 inflorescences from 3 female plants were pollinated. The intervals were as follows: 1.5-hour, 1 day, 2 days, 4 days, 7 days, 10 days and 22 days after treatment.

[5] = system: A. palmeri male plants; experiment: Exp 275: pollen weight of male plants after male sterilant agents; type: in vivo, Amaranthus palmeri
Description: The experiment was conducted during May-June 2021 in a net house in Rehovot, Israel. A. palmeri plants were sown in the net house soil and were grown for over a month before the experiment started. A. palmeri plants were divided into 6 groups of 10 plants, 60 male plants in total.
The plants were mature and produced pollen when the experiment started. The pollen had been collected daily with a vacuum cleaner. The vacuum cleaner had been mounted with a replaceable filter located ahead of the dust container, thus catching the pollen before it enters the container and improving its collection. Pollen was collected for 5 days before the treatment and was continued for 2 weeks afterwards.
The experiment tested 5 male sterilant agents: (I) Silicon oil 2 cST; (II) 2% Paraffin oil (Life—Superpharm) in Silicon oil 2 c/st; (III) 10% Paraffin oil (Life—Superpharm) in Silicon oil 2 cST; (IV) Clethodim (Select Super™), same as in Example 1; (V) Pyrithiobac, at 1/10 the concentration used in experiment II. Another group of plants was not treated at all (Blank).
The treatments were applied using a hand-held sprayer. The solutions were sprayed on top of the plants.

[6] = system: Abutilon theophrasti; experiment: Exp 401: clethodim on Abutilon theophrasti; type: in vivo; details: Select Super 7 ml/L
Description: as §1, §2, §5, §6, §4

[7] = system: A. palmeri male plants; experiment: Exp 254: pollen production of male plants after spraying male sterilant agents; type: in vivo, Amaranthus palmeri
Description: (§7) The experiment was conducted during April-May 2021 in a net house in Rehovot, Israel. A. palmeri plants were sown in germinating trays. Three weeks after the seedlings had emerged, the male plants were transplanted in the net house. A. palmeri plants were divided into 10 groups of 10 plants, 100 male plants in total. In addition, 30 females, 3 females per treatment, were transplanted in 4 L pots with a potting soil mixture and were grown in a different net house, isolated from male pollen.
Once the male plants had all started to flower, the pollen had been collected daily with a vacuum cleaner. The vacuum cleaner had been mounted with a replaceable filter located ahead of the dust container, thus catching the pollen before it enters the container and improving its collection. A new filter was used for each group, and the filters were kept in a 50 ml tube before the pollen was extracted and weighed in the lab.
(§8) The experiment tested 8 male sterilant agents (Table 2): (1) Triton X-100 (Adama), at label rate, ˜8 times the rate used in experiment I; (2) Tribenuron-Methyl (TBM) (Gadot), 1/100 the rate used in experiment I; (3) 10% Paraffin oil (Life—Superpharm) diluted in Silicon oil 2 cST; (4) E.O.S. (Adama), an insecticide with a physical mode of action, based on petroleum oil; (5) Maleic Hydrazide (Sigma), an Auxin (plant hormone) disruptor known to affect pollen production; (6) Pyrithiobac (IHARA chemical industry co. ltd), an herbicide of the AHAS inhibitors group, regularly used in cotton cultivation to control broadleaf weeds; (7) Diuron (Adama), a herbicide of the Photosystem II inhibitors, regularly used in cotton cultivation; (8) Clethodim (Select Super™ a selective herbicide used to control Gramineae. Another group of plants were treated with water only as control, and another was not treated at all (Blank).
(§9) The treatments were applied using a hand-held sprayer, the females were sprayed first and then the males. ˜650 ml solution was used per treatment for both males and females, except the Paraffin:Silicon oil treatment in which 500 ml was used. The solutions were sprayed on top of the plants except the Diuron that was sprayed directly to the soil and stem, except for one female that was sprayed on top. To activate the Diuron, each plant was watered with 1 L of water.

[8] = system: Amaranthus tuberculatus male plants; experiment: Exp 401: Amaranthus tuberculatus pollen production; type: in vivo; details: Select Super 7 ml/L
Description: as §1, §2, §3, §4

[9] = system: A. palmeri male plants; experiment: Exp 321: male sterility agents screening #2, pollen production; type: in vivo, Amaranthus palmeri; details: 7 ml/L (high rate); collection up to 12 DAA
Description: The goal of this experiments was to repeat results with Select Super™ (Arysta Lifescience) and test an additional formulation of clethodim to act as a sterilant on A. palmeri male plants.
The experiment was conducted during September-October 2022 in a net house in Rehovot, Israel. A. palmeri plants were sown in germinating trays, 3 weeks after the seedlings had emerged, the male plants were transplanted in the net house. A. palmeri plants were divided into 4 groups of 10 plants each, 40 male plants in total.
Once the male plants had all started to flower, the pollen had been collected daily with a vacuum cleaner in the same manner as described in Example 1. Pollen was collected in specific days following the applications up to 12 DAA.
The experiment tested 2 male sterilant agents: (1) Clethodim (Select Super™, Arysta Lifescience) low rate: 3.5 ml/L and high rate: 7 ml/L, (2) Clethodim (Arrow Super™, Adama) 7 ml/L. Another group of plants were not treated at all and served as a control.
Treatment procedure was conducted as follows: spraying of the entire plants using a hand-held 1.5 L sprayer for a full cover of all plant parts. Each group of plants was sprayed with the tested treatment while keeping enough distance between the groups to prevent contamination.

[10] = system: A. palmeri females; experiment: Exp 254: seed set of females pollinated one week after treatment; type: in vivo, Amaranthus palmeri
Description: as §7, §9
The experiment aimed to test not just the male sterility properties of the agents but also to examine the effect on the seed set. To do so, one week after treatment, the main inflorescence of each female (except the blank) was pollinated with fresh pollen mixed with talc in 2:1 ratio using a puffer. 70 mg of pollen was applied on each female. Two weeks after pollination the inflorescences were harvested, dried, thrashed and the seeds were counted.

[11] = system: A. palmeri females; experiment: Exp 254: phytotoxicity of the agents on females; type: in vivo, Amaranthus palmeri; details: 3 females per treatment; concentrations of Table 2; Diuron 5 ml/L, Pyrithiobac 5.4 μL/L
Description: as §7
as §8, with “Another group of plants were treated with water only as control, and another was not treated at all (Blank).” left out

[12] = Clethodim 3.5 ml/L, 10% Paraffin in 2 cST
[13] = Clethodim treatment group, FIG. 2
[14] = average of 3 inflorescences, pollinated one week after treatment

Compound: CCSC(C)CC1CC(=O)C(/C(CC)=N/OC/C=C/Cl)=C(O)C1 (centres unmarked) [Clethodim (Select Super™]
- abortion rate (aborted seeds/total seeds) ([1]; vs tap water): significantly higher compared to the water control

Compound: CCSC(C)CC1CC(=O)C(/C(CC)=N/OC/C=C/Cl)=C(O)C1 (centres unmarked) [Clethodim]
- reduction in average total fruit number [2]: 35%
- visible effect on the plants [3]: no visible effect on the plants other than on the flowering organs
- reduction of average seed weight per spike in comparison to the control spikes ([3]; pollination 7 days after treatment): 93%
- Average total seed weight per spike ([3]; pollination 7 days after treatment, 4 spikes from 4 plants): 13.25 mg
- visible effect on the plants ([4]; both rates): no visible effect on the plants
- reduction in number of seeds produced in comparison to the control, on average ([4]; high rate 7 ml/l (0.84 gr/L active ingredient)): 92%
- reduction in number of seeds produced in comparison to the control, on average ([4]; low rate 3.5 ml/l (0.42 gr/L active ingredient)): 67%
- duration of the reduction in pollen weight ([5]; 10% Paraffin oil in Silicon oil 2 cST, Clethodim (Select Super) as in Example 1): 8 days
- apparent damage to the plants ([5]; in vivo): did not cause any apparent damage to the plants
- onset of the reduction in pollen weight after application ([5]; in vivo): 5 days
- reduction in pollen weight compared to the blank ([5]; maximum reduction, FIG. 4): up to 80%
- duration of decreased total seed number after application [1]: at least 10 days
- time from application to start of Blossom-Drop [6]: 7 days
- reduction in average stem length (main stem) ([6]; 15 DAA, p-value *0.0058): 19%
- reduction in average pods number in comparison to the control ([6]; 15 days after application, p-value *0.0001): 75%
- pollen weight after treatment relative to the lowest amount collected before treatment ([7]; Clethodim 3.5 ml/L): 1/10
- duration of the pollen weight reduction / time to get back to pre-treatment weight [7, 12]: 14 days
- onset of the reduction in pollen weight [7, 12]: 5 days after treatment
- onset of pollen production (recovery) [7, 13]: 13 DAT
- period of major reduction in pollen weight [7, 13]: 5-8 DAT
- visible effect / injury to the treated plants ([7]; male plants after spraying): no apparent injury to the plants; also recorded: no visible effect on the plants
- duration of the effect on pollen [8]: at least 21 days
- onset of the effect on pollen [8]: 4 days after treatment
- reduction in pollen production between day 4 and the end of the experiment [9]: 78%
- Average Aborted Seeds [10, 14]: 80.7 number of seeds
- Average Abortion Rate (fraction of aborted seeds from the total seed number) [10, 14]: 0.17
- Average Normal Seeds [10, 14]: 349 number of seeds
- Average Seeds/ mg inflo. (total seed number divided by inflorescence weight) [10, 14]: 0.78
- Average Total Seeds [10, 14]: 429.7 number of seeds
- Average Inflo. Weight ([10]; average of 3 inflorescences, pollinated one week after treatment, harvested two weeks later): 667.3 mg
- effect on abortion rate compared to the water ([10]; compared to H2O treatment): no effect
- number of seeds per inflorescence mg as % of the water treatment value ([10]; compared to H2O treatment): ~70%

Compound: COc1cc(OC)nc(Sc2cccc(Cl)c2C(=O)O)n1 [Pyrithiobac]
- phytotoxicity on females [11]: chlorosis and growth stunt

Compound: CN(C)C(=O)Nc1ccc(Cl)c(Cl)c1 [Diuron]
- phytotoxicity on females [11]: killed all three females
